Structures can show the parent of a compound that is named as a salt.
Experiments:
Proteus mirabilis = test: Activity in vitro: minimum inhibitory concentration; type: cell-based
Streptococcus pyogenes [1] = test: Activity in vivo: survival of intraperitoneally infected mice; conditions: sc, 96 h; mice infected i.p. with Streptococcus pyogenes; s.c. twice, 1 h and 3 h after infection; survival on 4th day; read-out: CD50 (dosage at which 50% of the animals survive)
Experimental: (§1) Groups of 5 mice are infected intraperitoneally with an aqueous suspension of various pathogens. The test substance in physiological sodium chloride solution is administered subcutaneously twice, i.e. 1 hour and 3 hours after the infection. The number of surviving animals is determined on the 4th day. Various dosages are administered and that dosage at which 50% of the experimental animals survive (CD50, mg/kg) is determined by interpolation.

Escherichia coli [2] = test: as above; conditions: sc, 96 h; mice infected i.p. with Escherichia coli; s.c. twice, 1 h and 3 h after infection; survival on 4th day; read-out: CD50 (dosage at which 50% of the animals survive)
Experimental: as §1

Serratia marcescens [3] = test: as above; conditions: sc, 96 h, mice infected i.p. with Serratia marcescens strain 1, s.c. twice, 1 h and 3 h after infection, survival on 4th day, read-out: CD50 (dosage at which 50% of the animals survive)
Experimental: as §1

Klebsiella pseumoniae = test: Activity in vitro: minimum inhibitory concentration; type: cell-based
Pseudomonas aeruginosa [4] = test: Activity in vivo: survival of intraperitoneally infected mice; conditions: sc, 96 h; mice infected i.p. with Pseudomonas aeruginosa; s.c. three times, 1 h, 3 h and 5 h after infection; survival on 4th day; read-out: CD50 (dosage at which 50% of the animals survive)
Experimental: as §1
*Administered subcutaneously three times: 1 hour, 3 hours and 5 hours

Pseudomonas aeruginosa [5] = test: Activity in vitro: minimum inhibitory concentration; type: cell-based
Toxicity, LD50 = conditions: in vivo
Escherichia coli [6] = test: Activity in vitro: minimum inhibitory concentration; type: cell-based
Streptococcus pyogenes [7] = test: as above; type: cell-based; conditions: Streptococcus pyogenes strain 1, read-out: Minimum inhibitory concentration
Serratia marcescens [8] = test: as above; type: cell-based
Staphylococcus aureus = test: as above; type: cell-based
Proteus vulgaris = test: as above; type: cell-based
Enterobacter cloacae [9] = test: as above; type: cell-based
Proteus morganii = test: as above; type: cell-based; conditions: Morganella morganii
Citrobacter freundii = test: as above; type: cell-based
Proteus inconstans = test: as above; type: cell-based; conditions: Providencia alcalifaciens
Streptococcus pneumoniae = test: as above; type: cell-based
Streptococcus faecalis = test: as above; type: cell-based; conditions: Enterococcus faecalis
Enterobacter cloacae [10] = test: Activity in vivo: survival of intraperitoneally infected mice; conditions: sc, 96 h; mice infected i.p. with Enterobacter cloacae; s.c. twice, 1 h and 3 h after infection; survival on 4th day; read-out: CD50 (dosage at which 50% of the animals survive)
Experimental: as §1

Haemophilus influenzae = test: as above; conditions: sc, 96 h; mice infected i.p. with Haemophilus influenzae; s.c. twice, 1 h and 3 h after infection; survival on 4th day; read-out: CD50 (dosage at which 50% of the animals survive)
Experimental: as §1

Staphylococcus epidermis = test: Activity in vitro: minimum inhibitory concentration; type: cell-based
Proteus rettgeri = test: as above; type: cell-based; conditions: Providencia rettgeri
Enterobacter aerogenes = test: as above; type: cell-based; conditions: Klebsiella aerogenes
Streptococcus viridans = test: as above; type: cell-based
[11] = Pseudomonas aeruginosa strain 1
[12] = Pseudomonas aeruginosa strain 2
[13] = Pseudomonas aeruginosa strain 3

Structure (SMILES): CO/N=C(\C(=O)N[C@@H]1C(=O)N2C(C(=O)O)=C(COC(C)=O)CS[C@H]12)c1c[se]c(N)n1 [Product D, (6R, 7R)-3-(acetoxymethyl)-7-[2-(2-amino-4-selenazolyl)-2-[(Z)-methoxyimino]-acetamido]-8-oxo-5-thia-1-azabicyclo[4.2.0]oct-2-ene-2-carboxylic acid disodium salt]
- MIC (Proteus mirabilis; Proteus mirabilis strain 1): 0.025 µg/mL
- MIC (Proteus mirabilis; Proteus mirabilis strain 2): 0.05 µg/mL
- ED50 (Streptococcus pyogenes [1]): 0.05 mg/kg
- ED50 (Escherichia coli [2]): < 0.01 mg/kg
- ED50 (Serratia marcescens [3]): 0.14 mg/kg
- MIC (Klebsiella pseumoniae; Klebsiella pseumoniae strain 1): 0.2 µg/mL
- MIC (Klebsiella pseumoniae; Klebsiella pseumoniae strain 2): 0.025 µg/mL
- ED50 (Pseudomonas aeruginosa [4]): 35 mg/kg
- MIC (Pseudomonas aeruginosa [5]; [11]): 12.5 µg/mL
- MIC (Pseudomonas aeruginosa [5]; [12]): 12.5 µg/mL
- MIC (Pseudomonas aeruginosa [5]; [13]): 3.1 µg/mL
- LD50 (Toxicity, LD50; po): > 5000 mg/kg
- LD50 (Toxicity, LD50; sc): > 4000 mg/kg
- MIC (Escherichia coli [6]; Escherichia coli strain 1): 0.1 µg/mL
- MIC (Escherichia coli [6]; Escherichia coli strain 2): 0.025 µg/mL
- MIC (Streptococcus pyogenes [7]): 0.05 µg/mL
- MIC (Serratia marcescens [8]; Serratia marcescens strain 1): 0.8 µg/mL
- MIC (Serratia marcescens [8]; Serratia marcescens strain 2): 0.8 µg/mL
- MIC (Staphylococcus aureus; Staphylococcus aureus strain 1): 0.8 µg/mL
- MIC (Staphylococcus aureus; Staphylococcus aureus strain 2): 3.1 µg/mL
- MIC (Proteus vulgaris): 0.78 µg/mL
- MIC (Enterobacter cloacae [9]; Enterobacter cloacae strain 1): > 100 µg/mL
- MIC (Enterobacter cloacae [9]; Enterobacter cloacae strain 2): 3.1 µg/mL
- MIC (Proteus morganii): 0.39 µg/mL
- MIC (Citrobacter freundii; Citrobacter freundii strain 1): 6.3 µg/mL

Structure (SMILES): CO/N=C(\C(=O)N[C@@H]1C(=O)N2C(C(=O)[O-])=C(CSc3n[nH]c(=O)c(=O)n3C)CS[C@H]12)c1c[se]c(N)n1.[Na+] [Product G, (6R, 7R)-7-[2-(2-amino-4-selenazolyl)-2-[(Z)-methoxyimino]-acetamido]-8-oxo-3-[[(1,4,5,6-tetrahydro-4-methyl-5,6-dioxo-as-triazin-3-yl)thio]methyl]-5-thia-1-azabicyclo[4.2.0]oct-2-ene-2-carboxylic acid sodium salt]
- MIC (Proteus inconstans): 0.006 µg/mL
- MIC (Proteus mirabilis; Proteus mirabilis strain 3): 0.4 µg/mL
- MIC (Proteus mirabilis; Proteus mirabilis strain 4): 0.025 µg/mL
- MIC (Proteus mirabilis; Proteus mirabilis strain 5): 0.025 µg/mL
- MIC (Streptococcus pneumoniae): 0.1 µg/mL
- MIC (Streptococcus faecalis; Streptococcus faecalis strain 1): 25 µg/mL
- MIC (Streptococcus faecalis; Streptococcus faecalis strain 2): 50 µg/mL
- ED50 (Streptococcus pyogenes [1]): 0.02 mg/kg
- ED50 (Escherichia coli [2]): < 0.003 mg/kg
- ED50 (Enterobacter cloacae [10]): 9.2 mg/kg
- ED50 (Serratia marcescens [3]): 0.2 mg/kg
- ED50 (Haemophilus influenzae): 0.25 mg/kg
- MIC (Staphylococcus epidermis): 0.8 µg/mL
- MIC (Klebsiella pseumoniae; Klebsiella pseumoniae strain 1): 0.1 µg/mL
- MIC (Klebsiella pseumoniae; Klebsiella pseumoniae strain 2): 0.025 µg/mL
- MIC (Klebsiella pseumoniae; Klebsiella pseumoniae strain 3): 0.05 µg/mL
- ED50 (Pseudomonas aeruginosa [4]): > 200 mg/kg
- MIC (Pseudomonas aeruginosa [5]; [11]): 50 µg/mL
- MIC (Pseudomonas aeruginosa [5]; [12]): 50 µg/mL
- MIC (Pseudomonas aeruginosa [5]; [13]): 25 µg/mL
- LD50 (Toxicity, LD50; po): > 5000 mg/kg
- LD50 (Toxicity, LD50; sc): > 4000 mg/kg
- MIC (Proteus rettgeri): 0.05 µg/mL
- MIC (Enterobacter aerogenes; Enterobacter aerogenes strain 1): 0.1 µg/mL
- MIC (Enterobacter aerogenes; Enterobacter aerogenes strain 2): 0.1 µg/mL
- MIC (Escherichia coli [6]; Escherichia coli strain 1): 0.05 µg/mL
- MIC (Escherichia coli [6]; Escherichia coli strain 2): 0.012 µg/mL
- MIC (Escherichia coli [6]; Escherichia coli strain 3): 0.2 µg/mL
- MIC (Escherichia coli [6]; Escherichia coli strain 4): 0.2 µg/mL
- MIC (Escherichia coli [6]; Escherichia coli strain 5): 0.2 µg/mL
- MIC (Streptococcus pyogenes [7]): 0.05 µg/mL
- MIC (Serratia marcescens [8]; Serratia marcescens strain 1): 0.2 µg/mL
- MIC (Serratia marcescens [8]; Serratia marcescens strain 2): 0.4 µg/mL
- MIC (Serratia marcescens [8]; Serratia marcescens strain 3): 0.1 µg/mL
- MIC (Staphylococcus aureus; Staphylococcus aureus strain 1): 0.4 µg/mL
- MIC (Staphylococcus aureus; Staphylococcus aureus strain 2): 1.6 µg/mL
- MIC (Staphylococcus aureus; Staphylococcus aureus strain 3): 0.8 µg/mL
- MIC (Staphylococcus aureus; Staphylococcus aureus strain 4): 0.8 µg/mL
- MIC (Enterobacter cloacae [9]; Enterobacter cloacae strain 1): > 100 µg/mL
- MIC (Enterobacter cloacae [9]; Enterobacter cloacae strain 2): 0.8 µg/mL
- MIC (Enterobacter cloacae [9]; Enterobacter cloacae strain 3): 50 µg/mL
- MIC (Proteus morganii): 0.05 µg/mL
- MIC (Citrobacter freundii; Citrobacter freundii strain 1): 1.6 µg/mL
- MIC (Citrobacter freundii; Citrobacter freundii strain 2): 0.1 µg/mL
- MIC (Streptococcus viridans): 0.8 µg/mL
